Assay results: article PMC4537502 (Psychopharmacology, 2015)

Experiments:
[1] = plasma radioactivity and metabolite analysis after ^11C-SA4503 injection; format: in vivo; details: rat, 60 min, saline-treated
Protocol: From these samples, 25 μl of whole blood was collected and plasma (25 μl) was then obtained by centrifugation of the remaining sample (5 min at 13,000×g). Radioactivity in plasma and whole blood was determined using a calibrated gamma counter (CompuGamma CS1282, LKB-Wallac, Turku, Finland).

[2] = Biodistribution of ^11C-SA4503-derived radioactivity; format: in vivo; details: rat, 80 min after injection, mean ± SEM
[3] = molecular target: T1, sigma-1R (Rattus norvegicus, UniProt Q9R0C9); experiment: microPET with ^11C-SA4503, Logan graphical analysis and Cunningham-Lassen plot (sigma-1R occupancy); format: in vivo; details: for sigma-1R occupancy: rat brain, Cunningham-Lassen plot
T1 construct: from tissue; host or cells: brain of living rats (Wistar Unilever), in vivo microPET
T1 sequence (Q9R0C9 whole entry): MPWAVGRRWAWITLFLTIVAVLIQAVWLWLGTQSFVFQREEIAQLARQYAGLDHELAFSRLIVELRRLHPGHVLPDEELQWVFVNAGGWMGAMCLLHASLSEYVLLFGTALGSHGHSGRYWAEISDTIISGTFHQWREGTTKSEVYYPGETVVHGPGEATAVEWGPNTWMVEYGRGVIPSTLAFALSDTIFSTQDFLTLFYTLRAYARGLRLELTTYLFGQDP
Protocol: (§1) Because of limited availability of the test drug, the 60 mg/kg dose group was scanned only with ^11C-raclopride.
(§2) After drug administration and about 20 min before each microPET scan, animals were anesthetized with isoflurane (Pharmachemie BV, Haarlem, Netherlands). […] Both tracers were injected as a slow bolus (1 ml of saline-diluted tracer solution infused during a period of 1 min), using a Harvard-style injection pump.
From these samples, 25 μl of whole blood was collected and plasma (25 μl) was then obtained by centrifugation of the remaining sample (5 min at 13,000×g). Radioactivity in plasma and whole blood was determined using a calibrated gamma counter (CompuGamma CS1282, LKB-Wallac, Turku, Finland). Results are expressed as standardized uptake values (SUV), defined as [(plasma activity concentration (MBq/g) × body weight (g) / injected dose (MBq)]. Rat plasma was assumed to have a specific gravity of 1 g/ml.
(§3) Two rats were scanned in each scan session. They were positioned on heating mats in a microPET Focus 220 system, in transaxial position above each other with their brains in the field of view. Body temperature of the animals was kept close to normal with electronic temperature controllers. Heart rate and oxygen level of the blood during the scan were monitored using pulse oximeters (PulseSense, Nonin). […] A list mode protocol was used with a 76-min acquisition time.
(§4) Image reconstruction was performed using microPET Manager 2.3.3.6 (Siemens). The PET data were split according to position along the y-axis, so that a separate data set was acquired for each animal. The list mode data of the emission scans were reframed in a dynamic sequence of 6 × 10, 4 × 30, 2 × 60, 1 × 120, 1 × 180, 4 × 300, and 3 × 600 s (with an additional 960-s frame for the rat that was injected first). The data were reconstructed per time frame employing an iterative reconstruction algorithm (OSEM2D with Fourier rebinning, 4 iterations, and 16 subsets). […] Data sets were corrected for decay, random coincidences, scatter, and attenuation.
Logan graphical analysis was used to calculate regional tracer distribution volumes (VT). The starting time of the Logan fit was 20 min. Metabolite-corrected plasma radioactivity data were used as input function, and (uncorrected) whole blood radioactivity served to estimate the contribution of blood to brain radioactivity measured by the PET camera. […] The PMOD software package was used for curve fitting.

[4] = molecular target: dopamine D2 receptor (D2R) (Rattus norvegicus, UniProt P61169); experiment: in vivo
dopamine D2 receptor (D2R), sequence (P61169 whole entry): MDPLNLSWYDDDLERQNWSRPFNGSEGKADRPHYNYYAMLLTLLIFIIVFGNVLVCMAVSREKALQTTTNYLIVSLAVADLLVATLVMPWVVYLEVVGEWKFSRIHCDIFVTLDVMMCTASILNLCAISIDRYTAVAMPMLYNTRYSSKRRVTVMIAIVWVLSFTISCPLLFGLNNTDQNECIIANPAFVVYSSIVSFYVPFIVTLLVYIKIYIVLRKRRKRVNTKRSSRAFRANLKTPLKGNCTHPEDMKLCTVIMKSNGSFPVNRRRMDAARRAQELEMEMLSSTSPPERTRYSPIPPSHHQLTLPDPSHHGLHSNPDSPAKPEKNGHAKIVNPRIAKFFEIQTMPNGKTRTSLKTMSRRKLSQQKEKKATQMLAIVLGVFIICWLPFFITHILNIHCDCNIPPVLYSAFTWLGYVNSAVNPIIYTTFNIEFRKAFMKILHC
Protocol: as §1, §2, §3, §4
In ^11C-raclopride scans of the brain, three-dimensional regions of interest (ROIs) were manually drawn over the left and right striatum and cerebellum, using the program ASIPro 6.3.3.0 (Siemens). […] Time-activity curves (TACs) were generated for these regions (Fig. 1). The results are expressed as dimensionless standardized uptake values (PET-SUV), defined as [(tissue activity concentration (MBq/g) × body weight (g) / injected dose (MBq)]. Brain tissue was assumed to have a specific gravity of 1 g/ml.
Plateau values for the striatum-to-cerebellum ratio were derived from this curve fit.

[5] = molecular target: sigma-1R; details: ^3H-(+)-pentazocine competition, ref Sahlholm et al. [2013]; read-out: high-affinity Ki at sigma-1R; cited from earlier work
[6] = molecular target: D2R; parameters: method as in Pettersson et al. [2010]; details: ref Pettersson et al. [2010]; read-out: high-affinity Ki at D2R; cited from earlier work
[7] = test system: D2R; details: cited from earlier work
[8] = test system: dopamine release in striatum; details: rats, 1.7 mg/kg, ref Ponten et al. [2010]; cited from earlier work
[9] = test system: 6-hydroxydopamine-hemilesioned rats; details: 7.9 mg/kg, ref Ponten et al. [2013]; cited from earlier work
[10] = test system: Arc gene expression; details: rats, 10 mg/kg, ref Waters et al. [2014]; cited from earlier work
[11] = test system: rats; details: 15.9 mg/kg, ref Rung et al. [2008], Ponten et al. [2010]; cited from earlier work
[12] = test system: habituated rats; details: 15.9 mg/kg, ref Rung et al. [2008], Ponten et al. [2010]; cited from earlier work
[13] = rat, 3 and 15 mg/kg pridopidine

COc1ccc(CCN2CCN(CCCc3ccccc3)CC2)cc1OC [^11C-SA4503, 1-[2-(3,4-dimethoxyphenethyl)]-4-(3-phenylpropyl)piperazine]
parent tracer (^11C-SA4503) remaining unchanged in plasma [1]: 55%
Uptake of radioactivity (SUV values), Adipose tissue ([2]; 3 mg/kg pridopidine): 0.27 ± 0.06 SUV
Uptake of radioactivity (SUV values), Adrenal gland ([2]; 3 mg/kg pridopidine): 23.0 ± 4.1 SUV
Uptake of radioactivity (SUV values), Bladder ([2]; 3 mg/kg pridopidine): 0.88 ± 0.38 SUV
Uptake of radioactivity (SUV values), Bone ([2]; 3 mg/kg pridopidine): 0.26 ± 0.03 SUV
Uptake of radioactivity (SUV values), Bone marrow ([2]; 3 mg/kg pridopidine): 2.62 ± 0.67 SUV
Uptake of radioactivity (SUV values), Cerebellum ([2]; 3 mg/kg pridopidine): 0.76 ± 0.17 SUV
Uptake of radioactivity (SUV values), Cerebral cortex ([2]; 3 mg/kg pridopidine): 1.17 ± 0.17 SUV
Uptake of radioactivity (SUV values), Heart ([2]; 3 mg/kg pridopidine): 0.23 ± 0.01 SUV
Uptake of radioactivity (SUV values), Intestine (large) ([2]; 3 mg/kg pridopidine): 1.21 ± 0.12 SUV
Uptake of radioactivity (SUV values), Intestine (small) ([2]; 3 mg/kg pridopidine): 1.93 ± 0.40 SUV
Uptake of radioactivity (SUV values), Kidney ([2]; 3 mg/kg pridopidine): 2.10 ± 0.09 SUV
Uptake of radioactivity (SUV values), Liver ([2]; 3 mg/kg pridopidine): 7.71 ± 0.89 SUV
Uptake of radioactivity (SUV values), Lung ([2]; 3 mg/kg pridopidine): 1.05 ± 0.06 SUV
Uptake of radioactivity (SUV values), Muscle ([2]; 3 mg/kg pridopidine): 0.13 ± 0.01 SUV
Uptake of radioactivity (SUV values), Pancreas ([2]; 3 mg/kg pridopidine): 5.02 ± 0.64 SUV
Uptake of radioactivity (SUV values), Pituitary ([2]; 3 mg/kg pridopidine): 2.13 ± 0.44 SUV
Uptake of radioactivity (SUV values), Plasma ([2]; 3 mg/kg pridopidine): 0.14 ± 0.02 SUV
Uptake of radioactivity (SUV values), Red blood cells ([2]; 3 mg/kg pridopidine): 0.07 ± 0.01 SUV
Uptake of radioactivity (SUV values), Rest brain ([2]; 3 mg/kg pridopidine): 1.10 ± 0.05 SUV
Uptake of radioactivity (SUV values), Spleen ([2]; 3 mg/kg pridopidine): 2.03 ± 0.12 SUV
Uptake of radioactivity (SUV values), Submandibular gland ([2]; 3 mg/kg pridopidine): 4.48 ± 0.64 SUV
Uptake of radioactivity (SUV values), Urine ([2]; 3 mg/kg pridopidine): 1.60 ± 0.87 SUV
Uptake of radioactivity (SUV values), Adipose tissue ([2]; 15 mg/kg pridopidine): 0.36 ± 0.04 SUV
Uptake of radioactivity (SUV values), Adrenal gland ([2]; 15 mg/kg pridopidine): 10.7 ± 4.1 SUV
Uptake of radioactivity (SUV values), Bladder ([2]; 15 mg/kg pridopidine): 0.83 ± 0.22 SUV
Uptake of radioactivity (SUV values), Bone ([2]; 15 mg/kg pridopidine): 0.44 ± 0.05 SUV
Uptake of radioactivity (SUV values), Bone marrow ([2]; 15 mg/kg pridopidine): 2.20 ± 0.77 SUV
Uptake of radioactivity (SUV values), Cerebellum ([2]; 15 mg/kg pridopidine): 0.73 ± 0.03 SUV
Uptake of radioactivity (SUV values), Cerebral cortex ([2]; 15 mg/kg pridopidine): 0.87 ± 0.05 SUV
Uptake of radioactivity (SUV values), Heart ([2]; 15 mg/kg pridopidine): 0.38 ± 0.02 SUV
Uptake of radioactivity (SUV values), Intestine (large) ([2]; 15 mg/kg pridopidine): 0.74 ± 0.08 SUV
Uptake of radioactivity (SUV values), Intestine (small) ([2]; 15 mg/kg pridopidine): 1.70 ± 0.15 SUV
Uptake of radioactivity (SUV values), Kidney ([2]; 15 mg/kg pridopidine): 2.07 ± 0.15 SUV
Uptake of radioactivity (SUV values), Liver ([2]; 15 mg/kg pridopidine): 7.21 ± 0.83 SUV
Uptake of radioactivity (SUV values), Lung ([2]; 15 mg/kg pridopidine): 1.47 ± 0.04 SUV
Uptake of radioactivity (SUV values), Muscle ([2]; 15 mg/kg pridopidine): 0.22 ± 0.02 SUV
Uptake of radioactivity (SUV values), Pancreas ([2]; 15 mg/kg pridopidine): 6.23 ± 0.53 SUV
Uptake of radioactivity (SUV values), Pituitary ([2]; 15 mg/kg pridopidine): 2.75 ± 0.72 SUV
Uptake of radioactivity (SUV values), Plasma ([2]; 15 mg/kg pridopidine): 0.28 ± 0.02 SUV
Uptake of radioactivity (SUV values), Red blood cells ([2]; 15 mg/kg pridopidine): 0.16 ± 0.01 SUV
Uptake of radioactivity (SUV values), Rest brain ([2]; 15 mg/kg pridopidine): 0.65 ± 0.03 SUV
Uptake of radioactivity (SUV values), Spleen ([2]; 15 mg/kg pridopidine): 1.99 ± 0.07 SUV
Uptake of radioactivity (SUV values), Submandibular gland ([2]; 15 mg/kg pridopidine): 5.77 ± 0.39 SUV
Uptake of radioactivity (SUV values), Urine ([2]; 15 mg/kg pridopidine): 0.50 ± 0.09 SUV
Uptake of radioactivity (SUV values), Adipose tissue ([2]; Baseline): 0.26 ± 0.05 SUV
Uptake of radioactivity (SUV values), Adrenal gland ([2]; Baseline): 25.7 ± 3.6 SUV
Uptake of radioactivity (SUV values), Bladder ([2]; Baseline): 0.70 ± 0.10 SUV
Uptake of radioactivity (SUV values), Bone ([2]; Baseline): 0.44 ± 0.14 SUV
Uptake of radioactivity (SUV values), Bone marrow ([2]; Baseline): 2.57 ± 0.47 SUV
Uptake of radioactivity (SUV values), Cerebellum ([2]; Baseline): 1.95 ± 0.12 SUV
Uptake of radioactivity (SUV values), Cerebral cortex ([2]; Baseline): 1.97 ± 0.15 SUV
Uptake of radioactivity (SUV values), Heart ([2]; Baseline): 0.33 ± 0.04 SUV
Uptake of radioactivity (SUV values), Intestine (large) ([2]; Baseline): 1.72 ± 0.13 SUV
Uptake of radioactivity (SUV values), Intestine (small) ([2]; Baseline): 2.33 ± 0.28 SUV
Uptake of radioactivity (SUV values), Kidney ([2]; Baseline): 4.19 ± 0.20 SUV
Uptake of radioactivity (SUV values), Liver ([2]; Baseline): 6.47 ± 0.63 SUV
Uptake of radioactivity (SUV values), Lung ([2]; Baseline): 1.98 ± 0.18 SUV
Uptake of radioactivity (SUV values), Muscle ([2]; Baseline): 0.15 ± 0.02 SUV
Uptake of radioactivity (SUV values), Pancreas ([2]; Baseline): 4.95 ± 0.74 SUV
Uptake of radioactivity (SUV values), Pituitary ([2]; Baseline): 3.24 ± 0.03 SUV
Uptake of radioactivity (SUV values), Plasma ([2]; Baseline): 0.11 ± 0.02 SUV
Uptake of radioactivity (SUV values), Red blood cells ([2]; Baseline): 0.10 ± 0.03 SUV
Uptake of radioactivity (SUV values), Rest brain ([2]; Baseline): 2.23 ± 0.31 SUV
Uptake of radioactivity (SUV values), Spleen ([2]; Baseline): 2.62 ± 0.27 SUV
Uptake of radioactivity (SUV values), Submandibular gland ([2]; Baseline): 3.60 ± 0.18 SUV
Uptake of radioactivity (SUV values), Urine ([2]; Baseline): 0.35 ± 0.16 SUV

CCCN1CCC(c2cccc(S(C)(=O)=O)c2)CC1 [pridopidine, 4-[3-(methylsulfonyl)phenyl]-1-propylpiperidine]
sigma-1R occupancy ([3]; pridopidine 3 mg/kg s.c. 60 min before tracer): 56.7 ± 2.3%
sigma-1R occupancy ([3]; pridopidine 15 mg/kg s.c. 60 min before tracer): 84.5 ± 1.7%
VT of ^11C-SA4503 (Logan graphical analysis) ([3]; rat whole brain and brain regions, 3 and 15 mg/kg pridopidine): dose-dependent reduction in VT for all regions investigated
area under the brain time-activity curve (AUC) of ^11C-SA4503 [3, 13]: significantly decreased
receptor occupancy at 3 mg/kg ([3]; rat, sc, read-out: sigma-1R occupancy, rat brain, pridopidine 3 mg/kg s.c. 60 min before tracer, Cunningham-Lassen plot): 57 ± 2%
receptor occupancy at 15 mg/kg ([3]; rat, sc, read-out: sigma-1R occupancy, rat brain, pridopidine 15 mg/kg s.c. 60 min before tracer, Cunningham-Lassen plot): 85 ± 2%
reduction of ^11C-raclopride binding ([4]; rat striatum, 60 mg/kg pridopidine s.c.): 44–66%
effect on ^11C-raclopride uptake (time-activity curves) ([4]; rat, 3 mg/kg pridopidine): increase tracer uptake in striatum but not in cerebellum
effect on ^11C-raclopride uptake (time-activity curves) ([4]; rat, 15 mg/kg pridopidine): increase tracer uptake in both striatum and cerebellum to a rather minor extent
effect on ^11C-raclopride uptake (time-activity curves) ([4]; rat, 60 mg/kg pridopidine): striking increase of the uptake of ^11C-raclopride in both striatum and cerebellum
changes in ^11C-raclopride binding [4, 13]: No significant changes
receptor occupancy at 60 mg/kg ([4]; rat, sc, read-out: D2R occupancy (SRTM fit)): 44%
Ki [5]: ~0.07 µM
Ki [6]: 7.52 µM
D2R occupancy ([7]; Sprague-Dawley rats, 10 mg/kg, ex vivo radioligand binding, ref Natesan et al. [2006]): 35%
ED50 of D2R occupancy ([7]; Sprague-Dawley rats, ex vivo radioligand binding, ref Natesan et al. [2006]): 18.99 mg/kg
time to maximal D2R occupancy after s.c. injection ([7]; rat, ref Natesan et al. ([2006])): ≤ 1 h
time maximal D2R occupancy is maintained ([7]; rat, s.c., ref Natesan et al. ([2006])): 4 h
effect on dopamine release in striatum [8]: increased dopamine release in striatum
effect on L-DOPA-induced rotational asymmetry [9]: decreased L-DOPA-induced rotational asymmetry in 6-hydroxydopamine-hemilesioned rats
effect on Arc gene expression in frontal cortex [10]: induced Arc gene expression in frontal cortex
effect on MK-801- and amphetamine-induced hyperlocomotion [11]: decreased MK-801- and amphetamine-induced hyperlocomotion
effect on locomotor activity in habituated rats [12]: increased locomotor activity in habituated rats
